Test results taken from patent publication US5795907A, “Gastin and CCK receptor ligands” (James Black Foundation Limited, priority 1994, dated 1998).

Assays:
CCKB receptor = molecular target: T1, CCKB receptor (Mus musculus, UniProt P56481); assay: CCKB receptor radioligand binding assay in mouse cortical membranes ([125I]-CCK8S); conditions: [125I]-CCK8S 200 pM, 150 min at 21±3°; for Ki: read-out: CCKB pKi (converted)
T1 construct: The cortex was dissected, weighed and homogenised in 40ml ice-cold buffer; tissue Charles River (supplier of the CD1 mice); host or cells: cerebral cortex membranes of male CD1 mice
T1 sequence (P56481 1-453): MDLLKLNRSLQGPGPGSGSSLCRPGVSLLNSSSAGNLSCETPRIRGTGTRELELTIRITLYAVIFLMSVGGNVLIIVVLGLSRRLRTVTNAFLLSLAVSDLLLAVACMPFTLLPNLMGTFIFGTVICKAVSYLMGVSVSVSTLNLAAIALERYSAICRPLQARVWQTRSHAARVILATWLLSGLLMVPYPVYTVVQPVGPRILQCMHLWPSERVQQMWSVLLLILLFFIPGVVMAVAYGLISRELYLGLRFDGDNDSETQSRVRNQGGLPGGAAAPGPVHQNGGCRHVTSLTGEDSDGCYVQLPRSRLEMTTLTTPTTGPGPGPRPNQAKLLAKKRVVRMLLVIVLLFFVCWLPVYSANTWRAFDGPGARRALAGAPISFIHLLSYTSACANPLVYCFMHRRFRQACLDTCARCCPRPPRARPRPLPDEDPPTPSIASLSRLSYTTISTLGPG
In short: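 This was competition binding with tracer [125I]-CCK8S (200 pM solution added), run for 150 min at 21±3° on male CD1 mouse cortex membranes in pH 7.2 HEPES buffer with bacitracin. Filtration then gamma counting gave bound radioactivity. L-365,260 set the non-specific level.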

gastrin = molecular target: T2, gastrin (Rattus norvegicus, UniProt P30553); assay: gastrin antagonist activity in an immature rat stomach assay (pentagastrin-stimulated acid secretion); conditions: cumulative pentagastrin dose-response curves after 60 min with drug; for Kb: read-out: Gastrin pKB (converted)
T2 construct: The stomach was lowered into a jacketed organ bath containing 40 ml of buffered solution; from tissue; host or cells: isolated perfused whole stomach of immature rats (ca. 21 days old)
T2 sequence (P30553 1-452): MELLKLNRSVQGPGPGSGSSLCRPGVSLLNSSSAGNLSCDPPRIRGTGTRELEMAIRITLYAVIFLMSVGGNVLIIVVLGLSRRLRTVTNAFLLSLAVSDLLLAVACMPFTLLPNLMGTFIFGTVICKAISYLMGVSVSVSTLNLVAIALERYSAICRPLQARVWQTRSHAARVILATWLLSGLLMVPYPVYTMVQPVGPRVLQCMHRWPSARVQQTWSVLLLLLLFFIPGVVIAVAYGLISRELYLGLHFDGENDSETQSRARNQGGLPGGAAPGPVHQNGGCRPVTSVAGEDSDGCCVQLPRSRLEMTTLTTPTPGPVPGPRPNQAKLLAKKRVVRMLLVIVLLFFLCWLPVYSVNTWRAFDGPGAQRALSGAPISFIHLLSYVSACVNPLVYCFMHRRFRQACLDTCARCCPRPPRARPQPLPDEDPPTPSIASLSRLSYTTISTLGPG
In short: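 Isolated lumen-perfused immature rat stomach (33-50 g, ca. 21 days) in 37° organ bath with 3×10^-8 M 5-methylfurmethide; acid secretion read by pH electrode in perfusate. Compound added to serosal bath after 120 min stabilisation; cumulative pentagastrin dose-response curves begun 60 min later and analysed by the Black et al. method.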

CCKA = molecular target: T3, CCKA (Cavia porcellus, UniProt Q63931); assay: CCKA radioligand binding assay in guinea-pig pancreas membranes ([125I]-CCK8(S)); conditions: PD134,308 present, 150 minutes at 21±3°; for Ki: read-out: CCKA pKi (converted)
T3 construct: The pancreatata were homogenised in 40 ml ice-cold HEPES buffer using a polytron; from tissue; host or cells: pancreas membranes of male Dunkin Hartley guinea-pigs
T3 sequence (Q63931 1-430): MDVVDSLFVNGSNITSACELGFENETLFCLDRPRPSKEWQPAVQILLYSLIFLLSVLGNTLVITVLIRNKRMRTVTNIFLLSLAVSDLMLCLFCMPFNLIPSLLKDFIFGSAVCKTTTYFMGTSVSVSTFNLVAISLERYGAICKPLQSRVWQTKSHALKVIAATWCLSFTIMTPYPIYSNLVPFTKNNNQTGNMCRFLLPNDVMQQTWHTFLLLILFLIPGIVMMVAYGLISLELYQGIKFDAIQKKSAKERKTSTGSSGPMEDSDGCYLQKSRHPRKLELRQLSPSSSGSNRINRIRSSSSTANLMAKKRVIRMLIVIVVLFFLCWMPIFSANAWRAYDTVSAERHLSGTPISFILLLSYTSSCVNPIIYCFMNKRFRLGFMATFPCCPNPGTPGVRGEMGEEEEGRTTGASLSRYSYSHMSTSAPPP
In short: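 Competition for [125I]-CCK8(S) (added as […] solution) ran for 150 min at 21±3° in HEPES pH 7.2. Membranes came from male guinea-pig pancreas at 1 mg/ml original wet weight, with 0.375 μM PD134,308 in the suspension. Filter-bound counts were gamma-counted; 100 nM L-364,718 (added solution) defined non-specific binding.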

| CCKB pKi (CCKB receptor) | Gastrin pKB (gastrin) | CCKA pKi (CCKA) | Ki (CCKB receptor) [nM] | Kb (gastrin) [nM] | Ki (CCKA) [nM] | Compound |
| --- | --- | --- | --- | --- | --- | --- |
| 6.9 | 7.5 | 5.1 |  |  |  | 5-(1R-(3,5-dicarboxyphenylaminocarbonyl)-ethylaminocarbonyl)-6-(cycloheptanemethylaminocarbonyl)-indole and regioisomer with substituents at positions 5 and 6 reversed [Example 59] |
|  |  |  | 1000 | 158 | 6310 | C[C@@H](NC(=O)c1cc2ccccc2cc1C(=O)NCC12CC3CC(CC(C3)C1)C2)C(=O)O [Example 5, 2-(1R-carboxyethylamino-carbonyl)-3-(1-adamantanemethylaminocarbonyl)-naphthalene] |
| 8.2 | 8.0 | 5.3 |  |  |  | O=C(O)c1cccc(NC(=O)[C@H](Cc2ccccc2)NC(=O)c2cc3cc[nH]c3cc2C(=O)NCC23CC4CC(CC(C4)C2)C3)c1 [Example 90, 5-(1S-(3-carboxyphenylaminocarbonyl)-2-phenylethylaminocarbonyl)-6-(1-adamantanemethylaminocarbonyl)-indole] |
| 6.2 | 6.8 | 5.1 |  |  |  | 5-(2R-(1R-carboxyethylaminocarbonyl)pyrrolidinocarbonyl)-6-(1-adamantanemethylaminocarbonyl)-indole [Example 89] |
|  |  |  | 398 | 100 | 5010 | C[C@H](NC(=O)c1cc2[nH]cnc2cc1C(=O)NCC12CC3CC(CC(C3)C1)C2)C(=O)Nc1cc(C(=O)O)cc(C(=O)O)c1 [Example 71, 5-(1S-(3,5-dicarboxyphenylaminocarbonyl)-ethylaminocarbonyl)-6-(1-adamantanemethylaminocarbonyl)-benzimidazole] |
|  |  |  | 3160 | 501 | 3980 | O=C(NCC12CC3CC(CC(C3)C1)C2)c1cc2ccccc2cc1C(=O)N1CCC[C@H]1C(=O)O [Example 4, 2-(2S-carboxypyrrolidino-carbonyl)-3-(1-adamantanemethylaminocarbonyl)-naphthalene] |
| 7.8 | 7.7 | 6.1 |  |  |  | O=C(O)c1cc(NC(=O)[C@H](Cc2ccccc2)NC(=O)c2cc3[nH]cnc3cc2C(=O)NCC23CC4CC(CC(C4)C2)C3)ccc1F [Example 75, 5-(1S-(3-carboxy-4-fluoro-phenylaminocarbonyl)-2-phenylethylaminocarbonyl)-6-(1-adamantanemethylaminocarbonyl)-benzimidazole] |
| 7.4 | 8.0 | 5.3 |  |  |  | O=C(O)CNC(=O)[C@@H](Cc1ccccc1)NC(=O)c1cc2cc[nH]c2cc1C(=O)NCC12CC3CC(CC(C3)C1)C2 [Example 91, 5-(1R-(carboxymethylaminocarbonyl)-2-phenylethylaminocarbonyl)-6-(1-adamantanemethylaminocarbonyl)-indole] |
|  |  |  | 3160 | 1580 | 7940 | O=C(O)c1cc2ccccc2cc1C(=O)NCC12CC3CC(CC(C3)C1)C2 [Example 1, 3-(1-adamantanemethylaminocarbonyl)-2-naphthoic acid] |
|  |  |  | 5010 | 1260 | 1000 | COC(=O)[C@@H](C)NC(=O)c1cc2ccccc2cc1C(=O)NCC12CC3CC(CC(C3)C1)C2 [Example 8, 2-(1R-methoxycarbonylethylamino-carbonyl)-3-(1-adamantanemethylaminocarbonyl)-naphthalene] |
| 7.6 | 9.1 | 5.2 |  |  |  | 5-(1S-(3,5-dicarboxyphenylaminocarbonyl)-2-(4-hydroxyphenyl)e thylaminocarbonyl)-6-(1-adamantanemethylaminocarbonyl)-indole and regioisomer with substituents at positions 5 and 6 reversed [Example 30] |
| 8.1 | 9.2 | 5.4 |  |  |  | 5-(1R-(3,5-dicarboxyphenylaminocarbonyl)-2-phenylethylaminocarbonyl)-6-(1-adamantanemethylaminocarbonyl)-indole and regioisomer with substituents at positions 5 and 6 reversed [Example 29] |
| 6.5 | 6.8 | 5.7 |  |  |  | COC(=O)c1cc(NC(=O)[C@H](Cc2ccccc2)NC(=O)c2cc3ccoc3cc2C(=O)NCC23CC4CC(CC(C4)C2)C3)cc(C(=O)OC)c1 [Example 124, 5-(1S-(3,5-dimethoxycarbonylphenylaminocarbonyl)-2-phenylethylaminocarbonyl)-6-(1-adamantanemethylaminocarbonyl)-benzofuran] |
| 8.3 | 8.9 | 5.1 |  |  |  | O=C(O)c1cc(NC(=O)[C@H](Cc2ccccc2Cl)NC(=O)c2cc3[nH]cnc3cc2C(=O)NCC23CC4CC(CC(C4)C2)C3)cc(C(=O)O)c1 [Example 135, 5-(1S-(3,5-dicarboxyphenylaminocarbonyl)-2-(2-chlorophenyl)ethylaminocarbonyl)-6-(1-adamantanemethylaminocarbonyl)-benzimidazole] |
| 7.9 | 8.5 | 6.3 |  |  |  | 5-(1S-(3,5-dicarboxyphenylaminocarbonyl)-2-phenylethylaminocarbonyl)-6-(1-adamantanemethylaminocarbonyl)-2,3-dihydro-benzofuran [Example 123] |
|  |  |  | 200 | 200 | 501 | O=C(NCC12CC3CC(CC(C3)C1)C2)c1cc2nc[nH]c2cc1C(=O)N[C@@H](Cc1ccccc1)C(=O)Nc1cc(C=NO)cc(C=NO)c1 [Example 118, 5-(1S-(3,5-dihydroxyiminomethylenephenylaminocarbonyl)-2-phenylethylaminocarbonyl)-6-(1-adamantanemethylaminocarbonyl)-benzimidazole] |
|  |  |  | 0.794 | 0.251 | 3160 | O=C(O)c1cc(NC(=O)[C@H](Cc2ccccc2F)NC(=O)c2cc3cc[nH]c3cc2C(=O)NCC23CC4CC(CC(C4)C2)C3)cc(C(=O)O)c1 [Example 87, 5-(1S-(3,5-dicarboxyphenylaminocarbonyl)-2-(2-fluorophenyl)ethylaminocarbonyl)-6-(1-adamantanemethylaminocarbonyl)-indole] |

| Compound | CCKB pKi (CCKB receptor) | Gastrin pKB (gastrin) | CCKA pKi (CCKA) | Ki (CCKB receptor) [nM] | Kb (gastrin) [nM] | Ki (CCKA) [nM] |
| --- | --- | --- | --- | --- | --- | --- |
| CC(C)(C)NS(=O)(=O)c1cc(NC(=O)[C@H](Cc2ccccc2)NC(=O)c2cc3cc[nH]c3cc2C(=O)NCC23CC4CC(CC(C4)C2)C3)cc(S(=O)(=O)NC(C)(C)C)c1 [Example 95, 5-(1S-(3,5-di-tert-butylaminosulphonylphenylaminocarbonyl)-2-phenylethylaminocarbonyl)-6-(1-adamantanemethylaminocarbonyl)-indole] | 5.9 | 5.9 | 5.8 |  |  |  |
